The source of these data is US20040082591A1, “Therapeutic heterocyclic compounds” (priority 2001, published 2004).

A word on the Kd: it is the free concentration of one partner at which half of the binding sites on the other are occupied at equilibrium, for simple one-to-one binding. What is called melting point is the temperature of the solid-liquid transition.

In the first data set the target is 5-HT1B and 5HT1D receptors.
Assay: not given
Particulars: saturation studies, guinea pig cortex; 'may result in a measurement of'; read-out: Kd value of [3H]GR125743; cited from earlier work.
Consider `COc1ccc(NC(=O)c2ccc(-c3ccncc3)c(C)c2)cc1N1CCN(C)CC1` [[^3H]-GR125743], for which the Kd was 0.046 ± 0.004 nM.

The next data set deals with Hartley guinea pigs. In words: Learned helplessness test. The class given is in vivo, guinea pig. The note with it: antidepressant/antianxiety activity. The text has this:
The utility of the compounds for example to treat depression may be shown via a learned helplessness test in guinea pigs, which is used extensively as correlative to antidepressant activity in humans. The learned helplessness test may be carried out as follows: Seventy male Hartley guinea pigs, each weighing about 350-425 gm are fed ad lib, and are housed under a 12-hour light/dark cycle. The procedure consists of two phases: The induction phase and the avoidance training phase. In the induction phase, subjects are placed into standard shuttle cages (20 L×16 W×21 centimeters H) which are fitted with a grid floor. Electrical stimulation (1.25 mA, 10 sec duration) is delivered to the floor of the cage every 90-sec during 1 hour daily sessions. Subjects have no opportunity to escape or to avoid shocks. Induction is conducted for 2 consecutive days.
In avoidance training, testing is also conducted in the shuttle cages, except that the subjects are not returned to the same chamber in which induction had occurred. Additionally, all cages are fitted with a partition with an arch in the center of the cage, through which animals can pass between the left and right halves of the cage. The procedure employed is a standard shuttle avoidance procedure in which a compound, conditioned stimulus (a 10-sec presentation of a tone and turning on of a lamp on the side of the cage that the guinea pig was occupying) serves to indicate presentation of electrical current to the floor of the cage. Shock is presented for a 5 sec period, 5 sec after initiation of the conditioned stimulus. Entry into the opposite side of the shuttle cage via the arched partition prior to shock onset results in the end of the trial (avoidance response). If shock is delivered, entry into the opposite side of the cage results in termination of the shock and CS (escape). Reversal of learned helplessness in the induction subjects correlates to antidepressant activity of the test compound.
Avoidance training, 45-min in duration, is conducted on 2 consecutive days, beginning 48 hr after the final induction session. Seventy subjects are assigned to 1 of 6 groups of 11-12 animals. The groups are as follows:
Groups 2-6 are given induction and avoidance training sessions. Injections are administered immediately following induction sessions and 1 hour prior to avoidance training sessions. A second injection is administered 7-8 hours following the first injection, for a total of 9 injections administered over 5 days. No injections are administered following the final avoidance training session.
Compounds of the present invention may be administered in a volume of 1 mL/kg bwt. Imipramine is dissolved in DI water. The compounds are dissolved in DI water, to which was added a few drops of lactic acid (pH 5.5). […]
In the case of `CCC(=O)N1CCN(c2ccc(NC(=O)c3cc(=O)c4cc(OC)cc(N5CCN(C)CC5)c4o3)cc2)CC1` [Example 44, 6-Methoxy-8-(4-methyl-piperazin-1-yl)-4-oxo-4H-chromene-2-carboxylic Acid [4-(4-propionyl-piperazin-1-yl)-phenyl]-amide], the “activity in the learned helplessness assay” value (from here on “activity”) was “demonstrate activity”. On to `COc1cc(N2CCN(C)CC2)c2oc(C(=O)Nc3ccc(N4CCOCC4)cc3)cc(=O)c2c1` [Example 31, 6-Methoxy-8-(4-methyl-piperazin-1-yl)-4-oxo-4H-chromene-2-carboxylic acid (4-morpholin-4-yl-phenyl)-amide], for which the “activity” value is “demonstrate activity”. `CCS(=O)(=O)N1CCN(c2ccc(NC(=O)c3cc(=O)c4cc(F)cc(N5CCN(C)CC5)c4o3)cc2)CC1` [Example 71]: the “activity” value is “demonstrate activity”. As for `CCC(=O)N1CCN(c2ccc(NC(=O)c3cc(=O)c4cc(F)cc(N5CCN(C)CC5)c4o3)cc2)CC1` [Example 72, 6-flouro-8-(4-methyl-piperazin-1-yl)-4-oxo-4H-chromene-2-carboxylic acid [4-(4-propionyl-piperazin-1-yl)-phenyl]-amide], the “activity” value was “demonstrate activity”.

The subject of a further data set is 5-HT1B receptors and 5-HT1D receptors. In words: Radioligand competition binding with [3H]-GR125743 on membranes of transfected CHO cells.
Details: not given
The text has this:
Other assays that may be used to measure for example affinity of compounds of the present invention for 5HT1B and 5HT1D receptors are described in J. Med. Chem 41:1218-1235, 1228 (1998) and J. Med. Chem 42:4981-5001, (1999) and incorporated by reference herein. These assays may be used with some modifications: Frozen membrane preparations of a stably transfected chinese hamster ovary (CHO) cell line expressing 5-HT1B receptors and 5-HT1D receptors are thawed rapidly, briefly vortexed, and diluted in assay buffer (AB) containing 50 mM Tris-HCl, 4 mM MgCl2, 4 mM CaCl2, 1 mM EDTA, and adjusted to pH 7.4 with NaOH. Final protein concentrations are—0.185 mg/ml for 5-HT1B, and 0.4 mg/ml for 5-HT1D membranes. Test compounds are evaluated in competition assays using [^3H]-GR125743 (Amersham). The ligand concentration in both assays was 0.27 nM. […] The 5-HT1B and 5-HT1D assays are performed simultaneously on one 96-well assay plate, one drug/compound per plate. Ten serial dilutions (1 uM to 4 pM, final concentration) of compound are prepared in DMSO from 10 mM stock solutions. Incubation mixtures are prepared in quadruplicate in 96-deep well assay plates (Matrix 1 ml). […] The plates are then counted on a Packard TopCount to determine CPM's per well. Ki values are determined for each test compound utilizing the graphic and analytical software package, GraphPad Prism. […]
(In general: Displacement assays read how much labelled ligand stays bound in the presence of the test substance.)
Consider `COc1ccc(NC(=O)c2ccc(-c3ccncc3)c(C)c2)cc1N1CCN(C)CC1` [[^3H]-GR125743], for which the Kd fell in the range of 0.15 to 0.25 nM.

System in the next data set: not given
Assay: not given
Details: not given
Regarding `CN1CCN(c2cccc3c2OC(C(=O)Nc2ccc(N4CCOCC4)cc2)CC3=O)CC1` (single isomer, unassigned) [Example 79, 8-(4-Methyl-piperazin-1-yl)-4-oxo-chroman-2-carboxylic Acid (4-morpholin-4-yl-phenyl)-amide], the melting point is 216 °C (dec.). For `CN1CCN(c2cccc3c(=O)cc(C(=O)Nc4ccc(N5CCOCC5)cc4O)oc23)CC1` [Example 22, 8-(4-Methyl-piperazin-1-yl)-4-oxo-4H-chromene-2-carboxylic Acid (2-hydroxy-4-morpholin-4-yl-phenyl)-amide], the melting point fell in the range of 248.4 to 249.6 °C. `CN1CCN(c2cccc3c(=O)cc(C(=O)Nc4ccc(N5CCOCC5)cc4)oc23)CC1` [Example 1, 8-(4-methyl-1-piperazinyl)-N-[4-(4-morpholinyl)phenyl]-4-oxo-4H-chromene-2-carboxamide]: the melting point was 217 to 218 °C (dec.). Same read-out and setting: the figure for `CN1CCN(c2cccc3c2OC(C(=O)Nc2ccc(N4CCOCC4)cc2)CC3=O)CC1` (single isomer, unassigned) [Example 80, 8-(4-Methyl-piperazin-1-yl)-4-oxo-chroman-2-carboxylic Acid (4-morpholin-4-yl-phenyl)-amide] is 215 °C (dec.); for `COc1cc(N2CCN(C)CC2)c2oc(C(=O)Nc3ccc(N4CCOCC4)cc3)cc(=O)c2c1` [Example 31, 6-Methoxy-8-(4-methyl-piperazin-1-yl)-4-oxo-4H-chromene-2-carboxylic acid (4-morpholin-4-yl-phenyl)-amide] it is 234 to 236 °C. As for `COc1cc(N2CCN(C)CC2)c2oc(C(=O)Nc3ccc(N4CCN(C(=O)CCO)CC4)cc3)cc(=O)c2c1` [Example 68, 6-Methoxy-8-(4-methyl-piperazin-1-yl)-4-oxo-4H-chromene-2-carboxylic Acid {4-[4-(3-hydroxy-propanoyl)-piperazin-1-yl]-phenyl}-amide], the melting point is 195 to 197 °C. Take `CN1CCN(c2cc(F)cc3c(=O)cc(C(=O)Nc4ccc(N5CCN(C(=O)CCO)CC5)cc4)oc23)CC1` [Example 73, 6-Fluoro-8-(4-methyl-piperazin-1-yl)-4-oxo-4H-chromene-2-carboxylic Acid {4-[4-(3-hydroxy-propanoyl)-piperazin-1-yl]-phenyl}-amide]: the melting point was 195 to 199 °C. On the same count and under the same terms, for `CN1CCN(c2cccc3c(=O)cc(-c4nc5ccc(N6CCOCC6)cc5o4)oc23)CC1` [Example 21, 8-(4-Methyl-piperazin-1-yl)-2-(6-morpholin-4-yl-benzooxazol-2-yl)-chromen-4-one] the value was 158.1 to 158.8 °C. Consider `CCS(=O)(=O)N1CCN(c2ccc(NC(=O)c3cc(=O)c4cc(F)cc(N5CCN(C)CC5)c4o3)cc2)CC1` [Example 71], for which the melting point was 233 to 234 °C. In turn, `CN1CCN(c2cccc3c2OC(C(=O)Nc2ccc(N4CCOCC4)cc2)CC3)CC1` (single isomer, unassigned; (-)) [Example 77, (−)-8-(4-Methyl-piperazin-1-yl)-chroman-2-carboxylic Acid (4-morpholin-4-yl-phenyl)-amide] gave a melting point of 205.5 to 207 °C. The compound `CN1CCN(c2cccc3c2OC(C(=O)Nc2ccc(N4CCOCC4)cc2)CC3)CC1` (racemic) [Example 75, Racemic-8-(4-Methyl-piperazin-1-yl)-chroman-2-carboxylic acid (4-morpholin-4-yl-phenyl)-amide] had a melting point of 215 to 216 °C. `CN1CCN(c2cccc3c2OC(C(=O)Nc2ccc(N4CCOCC4)cc2)CC3=O)CC1` (racemic) [Example 78, racemic-8-(4-methyl-piperazin-1-yl)-4-oxo-chroman-2-carboxylic acid (4-morpholin-4-yl-phenyl)-amide] displayed a melting point of 215 to 216 °C. Regarding `CCNC(=O)N1CCN(c2ccc(NC(=O)c3cc(=O)c4cc(F)cc(N5CCN(C)CC5)c4o3)cc2)CC1` [Example 81, 4-[4-({1-[6-Fluoro-8-(4-methyl-piperazin-1-yl)-4-oxo-4H-chromen-2-yl]-methanoyl}-amino)-phenyl]-piperazine-1-carboxylic Acid Ethylamide], the melting point was 236 to 238 °C. Consider `CN1CCN(c2cccc3c2OC(C(=O)Nc2ccc(N4CCOCC4)cc2)CC3)CC1` (single isomer, unassigned; (+)) [Example 76, (+)-8-(4-Methyl-piperazin-1-yl)-chroman-2-carboxylic Acid (4-morpholin-4-yl-phenyl)-amide], for which the melting point lay within 206 to 207 °C.
